Test results as given in PubChem BioAssay AID256 (DTP/NCI, 2004).
“And” between values parts separate entries of the source, which are not always exact repeats. Equal values may be shown once. Toxic doses and inconclusive results are not listed. The calls were made as follows: active = survival T/C of 150% or more; inactive = T/C below 125% in these data.

Test system: CD2F1 mice, L1210 leukemia ip, survival T/C
Test: NCI In Vivo Anticancer Drug Screen. Data for tumor model L1210 Leukemia (intraperitoneal) in CD2F1 (CDF1) mice
Conditions: endpoint: mean survival time, higher = longer survival
Outline: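 Implant tumor; dose compound or vehicle; measure endpoint in both groups; report treated divided by control.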

[1] = dose: 100.0 mg/kg/injection, schedule: Q01DX009 (ip), vehicle: saline with Tween-80
[2] = dose: 100.0 mg/kg/injection, schedule: Q04DX003 (ip), vehicle: saline with Tween-80
[3] = dose: 200.0 mg/kg/injection, schedule: Q01DX009 (ip), vehicle: saline with Tween-80
[4] = dose: 200.0 mg/kg/injection, schedule: Q04DX003 (ip), vehicle: saline with Tween-80
[5] = dose: 400.0 mg/kg/injection, schedule: Q01DX009 (ip), vehicle: saline with Tween-80
[6] = dose: 400.0 mg/kg/injection, schedule: Q04DX003 (ip), vehicle: saline with Tween-80
[7] = dose: 100.0 mg/kg/injection, schedule: Q04DX003 (ip), vehicle: saline
[8] = dose: 200.0 mg/kg/injection, schedule: Q04DX003 (ip), vehicle: saline
[9] = dose: 400.0 mg/kg/injection, schedule: Q04DX003 (ip), vehicle: saline

Measured: T/C

O=C1CCC(=O)N1Br
inactive: [1] 101 % of control | [2] 100 % of control | [3] 96 % of control | [4] 95 % of control | [5] 101 % of control | [6] 91 % of control

CCC(=O)O[C@H]1CC[C@H]2[C@@H]3C[C@H](F)C4=CC(=O)CC[C@]4(C)[C@H]3CC[C@]12C
inactive: [7] 102 % of control | [8] 95 % of control | [9] 95 % of control

CCN(CC)CCCC(C)(NCc1ccccc1)[P+](=O)O (stereo not given)
inactive: [1] 90 % of control | [7] 96 % of control | [3] 86 % of control | [8] 91 % of control | [5] 94 % of control | [9] 94 % of control

CCc1ccccc1NC(=O)Nc1ccc(N(C)C(C)=O)cc1
inactive: [1] 95 % of control | [3] 93 % of control | [5] 93 % of control

S=c1nc(-c2ccncc2)[nH][nH]1
inactive: dose: 25.0 mg/kg/injection, schedule: Q01DX009 (ip), vehicle: saline sonified 107 % of control | dose: 50.0 mg/kg/injection, schedule: Q01DX009 (ip), vehicle: saline sonified 98 % of control | dose: 100.0 mg/kg/injection, schedule: Q01DX009 (ip), vehicle: saline sonified 107 % of control | [2] 100 % of control

CCC(=O)c1ccc(OC(C)=O)c(OC(C)=O)c1
inactive: dose: 100.0 mg/kg/injection, schedule: Q01DX009 (ip), vehicle: saline 96 % of control | dose: 200.0 mg/kg/injection, schedule: Q01DX009 (ip), vehicle: saline 96 % of control | dose: 400.0 mg/kg/injection, schedule: Q01DX009 (ip), vehicle: saline 96 % of control

CC(=O)C1CCOC1=O (stereo not given)
inactive: [7] 96 % of control | [8] 104 % of control | [9] 98 % of control

CCOC(=O)C1CC1C(=O)OCC (stereo not given)
inactive: [1] 88 % of control | [2] 100 % of control | [3] 104 % of control | [4] 96 % of control | [5] 100 % of control | [6] 103 % of control

Nc1ncnc2c1nc([Se])n2C1OC(CO)C(O)C1O (stereo not given)
inactive: dose: 12.5 mg/kg/injection, schedule: Q01DX005 (ip), vehicle: water 100 % of control | dose: 25.0 mg/kg/injection, schedule: Q01DX005 (ip), vehicle: water 97 % of control | dose: 50.0 mg/kg/injection, schedule: Q01DX005 (ip), vehicle: water 100 % of control | dose: 100.0 mg/kg/injection, schedule: Q01DX005 (ip), vehicle: water 95 % of control | dose: 200.0 mg/kg/injection, schedule: Q01DX005 (ip), vehicle: water 90 % of control

CCN(CC)C(=O)c1ccc[n+](Cc2ccc(Cl)cc2)c1
inactive: [7] 102 % of control

CCC[CH2][Sn]1([CH2]CCC)[O]c2ccccc2[O]1
inactive: dose: 1.56 mg/kg/injection, schedule: Q04DX002 (ip), vehicle: saline with Tween-80 100 % of control | dose: 3.12 mg/kg/injection, schedule: Q04DX002 (ip), vehicle: saline with Tween-80 96 % of control | dose: 6.25 mg/kg/injection, schedule: Q04DX002 (ip), vehicle: saline with Tween-80 98 % of control | dose: 12.5 mg/kg/injection, schedule: Q04DX002 (ip), vehicle: saline with Tween-80 113 % of control

CCCCCCCCCCCCCCCCCC[N+]1(C)CCC[N+](C)(CCCCCCCCCCCCCCCCCC)CC1 (stereo not given)
inactive: dose: 100.0 mg/kg/injection, schedule: Q04DX002 (ip), vehicle: saline with Tween-80 98 % of control and 100 % of control | [2] 86 % of control and 108 % of control | dose: 200.0 mg/kg/injection, schedule: Q04DX002 (ip), vehicle: saline with Tween-80 92 % of control and 100 % of control | [4] 90 % of control and 104 % of control | dose: 400.0 mg/kg/injection, schedule: Q04DX002 (ip), vehicle: saline with Tween-80 87 % of control and 92 % of control | [6] 88 % of control
